Common to all, as to type: physicochemical
The nature of data set [1]: Particle size distribution analysis. The protocol: Moreover, particle size distribution analysis for ticagrelor was performed.
The nature of data set [2]: Bulk/tapped density, compressibility index, Hausner ratio and flowability of drug substance. The protocol: (§1) Moreover, this low aqueous solubility of ticagrelor leads to an increase of relevance of particle size. Solubility studies in human intestinal fluids, bulk-tapped density, compressibility index, Hausner ratio, flowability studies of drug substance were performed prior to beginning of the development process of pharmaceutical drug product.
In addition, bulk density and tapped density values of ticagrelor was investigated. By using the results obtained, compressibility index, Hausner ratio and flowability of drug substance was designated.

Data set [3] in a line: Solubility study of ticagrelor drug substance in water and pH media. Here is the method: as §1

Broadly, the solubility is the concentration that dissolves in the medium under given conditions.

Values after ≈ are worked out from the molar mass of the structure shown. Where two headings read alike, the source gives them in different places.

As to `CCCSc1nc(N[C@@H]2C[C@H]2c2ccc(F)c(F)c2)c2nnn([C@@H]3C[C@H](OCCO)[C@@H](O)[C@H]3O)c2n1` [Ticagrelor, (1S,2S,3R,5S)-3-(7-{[(1R,2S)-2-(3,4-Diflourophenyl)cyclopropyl]amino}-5-(propylsulfanyl)-3H-[1,2,3]triazol[4,5-d]pyrimidine-3-yl)-5-(2-hydroxyethoxy)cyclopentane-1,2-diol], in data set [1], the D10 amounted to 3.0 µm, the D50 was found to be 6.4 µm and the D90 came out at 12.5 µm. For the same molecule, in data set [2], the Bulk density was 0.157, the Compressibility index is 39%, the Flowability result is “Very poor” and the Hausner ratio came to 1.639. Also, in data set [2], the Tapped density came out at 0.257. Also, in data set [3] (pH 1.2 medium, pH 1.2, simulated gastric fluid, read-out: Average solubility, pH: 1.2), the solubility is 14 µg/mL (≈ 26.8 µM). Also, the solubility in data set [3] (pH 4.5 medium, pH 4.5, aqueous buffer, read-out: Average solubility, pH: 4.5) is 6 µg/mL (≈ 11.5 µM). Moreover, the solubility in data set [3] (pH 6.8 medium, pH 6.8, aqueous buffer, read-out: Average solubility, pH: 6.8) worked out at 5 µg/mL (≈ 9.57 µM). In addition, the solubility in data set [3] (water, read-out: Average solubility, Water) was determined as 6 µg/mL (≈ 11.5 µM).

(Values after EP4048276B1, “SOLID PHARMACEUTICAL FORMULATIONS COMPRISING TICAGRELOR” (Santa Farma Ilaç Sanayi A.S., priority 2019, dated 2021).)
